The text below walks through data of patent US20030172478A1, “Bipyrrolinonylidene-type compound, colorant therewith, and method of producton thereof” (DAINIPPON INK AND CHEMICALS, INC., priority 2002, published 2003).

A short description of data set [1]: solubility of the products in solvents. Format: physicochemical.
The conditions of data set [2]: background statement; cited from earlier work.

The structures appear in SMILES notation.

For the compound `CCOC(=O)C1=C(c2ccccc2)NC(=O)/C1=C1/C(=O)NC(c2ccccc2)=C1C(=O)OCC` [diethyl bipyrrolinonylidenedicarboxylate], the “solubility in dimethyl sulfoxide” value in data set [1] (solvent dimethyl sulfoxide) is “soluble”. For the same compound, in data set [1] (solvent dimethylformamide), the solubility in dimethylformamide entry is recorded as “soluble”. Besides, the solubility in ethanol result in data set [1] (solvent ethanol) is recorded as “slightly soluble”.

With `O=C1NC(c2ccccc2)=C/C1=C1/C=C(c2ccccc2)NC1=O` [formula (b), bipyrrolinonylidene], in data set [2], the “solubility in water and organic solvents” value is “poor solubility”.
